In patent US20220308062A1, “METHODS FOR PREDICTING DRUG RESPONSIVENESS IN SAMPLES FROM CANCER SUBJECTS” (Board of Regents, The University of Texas System, priority 2019, published 2022):
“Also recorded” adds a separate entry of the source.

Assays:
A549 and H2009 cells [1] = assay: CellTiter-Glo cell viability, TP-0903 and/or ruxolitinib; type: cell-based, human; conditions: 20, 30 and 40 nmol/L, 72 hr
Experimental: Cell lines. A549 and H2009 cell lines were obtained from and authenticated by the American Type Culture Collection, and routinely maintained in RPMI-1640 medium supplemented 10% FBS, penicillin (100 units/mL) and streptomycin ([…]) in aired with 5% CO^2 at 37° C. The absence of Mycoplasma contamination was validated using DAPI staining. […] The CellTiter-Glo Luminescent Cell Viability assay was used to determine cell responsiveness. shRNA knockdown was performed in A549 cells by using lentiviral delivery of short-hairpin AXL or vehicle plasmid pLKO.1 puro in two biological repeats (Addgene; Table 3).

A549 cells = assay: Atomic force microscopy, A549; type: cell-based, human; conditions: A549, 40 nmol/L, 24 hr
From the text: Atomic force microscopy. […] Briefly, live cells cultured were imaged in 60 mm dishes with a Nanoscope Catalyst AFM (Bruker, Billerica, Mass.) mounted on a Nikon Ti inverted epifluorescent microscope. […] To collect the nanomechanical phenotypes of single cells immersed in culture media, 30×30 μm images were captured with a resolution of 256×256 pixels using the PeakForce Quantitative Nanomechanical Mapping (QNM) AFM (Bruker, Billerica, Mass.). For imaging, […]-AIR (Bruker, Billerica, Mass.) probes were applied with the nominal spring constant 0.4 N/m. Following the Sneddon model and the Sokolov's rules, nanomechanical parameters were calculated with Nanoscope Analysis software v.1.7 (Bruker, Billerica, Mass.) using retrace images. Images of at least 15 cells representing each tested case in three biological replicates were collected.
Atomic force microscopy (AFM). […] Briefly, live cells cultured in 60 mm dishes were imaged with a Nanoscope Catalyst AFM (Bruker) mounted on a Nikon Ti inverted epifluorescent microscope. […] To collect the nanomechanical phenotypes of single cells immersed in culture media, 30×30 μm images were captured with a resolution of 256×256 pixels using the Peak Force Quantitative Nanomechanical Mapping (QNM) AFM (Bruker). For imaging, […]-AIR probes were used with the nominal spring constant 0.4 N/m. Following the Sneddon model and the Sokolov's rules, nanomechanical parameters were calculated with Nanoscope Analysis software v.1.7 using retrace images.

A549 mouse xenograft = assay: Xenograft study of TP-0903 treatment; type: in vivo; conditions: oral 120 mg/kg twice weekly or 80 mg/kg daily
Experimental: Xenograft study of TP-0903 treatment. Mouse xenografts were implanted subcutaneously in the hind flank of the athymic nude mice. Tumor volumes were allowed to grow to a medium size (approximately 100 mm^3) before stratification and initiation of dosing. General health, tumor volumes, and bodyweights were followed over the course of the study.
Xenograft study of TP-0903 treatment. Mouse xenografts were implanted subcutaneously in the hind flank of the athymic nude mice. Tumor volumes were grown to a medium size (˜100 mm^3) before stratification and dose initiation. General health, tumor volumes, and bodyweights were followed over the course of the study.

A549 and H2009 cells [2] = assay: Capillary Western immunoassay (WES); type: cell-based, human
Experimental: Capillary Western immunoassay. Protein lysates of A549 lung cancer cells were prepared in radioimmunoprecipitation assay buffer (Thermo Fisher Scientific). Proteins with 12-230 kDa were analyzed in the Western immunoassay (WES) Separation Module of the quantitative capillary Western immunoassay system (ProteinSimple, San Jose, Calif.). The following antibodies were used: (i) β-catenin, AXL, AKT, C-RAF, p38 MAPK, MEK1/2, P42/44 MAPK, SMAD2/3, SMAD4, and GAPDH from Cell Signaling Technology (Danvers, Mass.); (ii) p-AXL from R&D Systems (Minneapolis, Minn.); (iii) vimentin, YAP1, TAZ, CK8/18 and CK19 from Novus Biologicals (Centennial, Colo.); (iv) N-cadherin from Abcam (Cambridge); (v) E-cadherin from BD Biosciences (San Jose, Calif.). Protein expression levels were normalized with that of GAPDH.
Capillary Western immunoassay (WES). Protein lysates of A549 and H2009 cells were prepared in radio-immunoprecipitation assay buffer (Thermo Fisher Scientific). Proteins were then analyzed in 12-230 and 66-440 kDa WES separation module of quantitative capillary Western immunoassay system (Protein Simple). The following antibodies were used: 1) AXL, AKT, JNK, p38 MAPK, MEK1/2, P42/44 MAPK, and GAPDH (Cell Signaling Technology); and 2) p-AXL and YAP1 (R&D Systems). Protein expression levels were normalized with GAPDH as loading controls.
Materials and methods. Capillary Western immunoassay (WES). Protein lysates of A549 and H2009 cells were prepared in radio-immunoprecipitation assay buffer (Thermo Fisher Scientific). Proteins were then analyzed in 12-230 and 66-440 kDa WES separation module of quantitative capillary Western immunoassay system (Protein Simple). Antibodies against AXL and GAPDH were (Cell Signaling Technology). Protein expression levels were normalized with GAPDH as loading controls.

two other TAM family = conditions: refs [21, 22]; concentration not given; cited from earlier work
[3] = tested on: A549, H2009 and H226 cell lines; assay: Wound healing (migration) assay; type: cell-based, human
Experimental: Analysis was performed using IncuCyte ZOOM (Essen BioScience) with images acquired every 3 hr for up to 72 hr. Four images (proliferation) and one image (wound healing) were captured per well for each time point. Data were normalized to controls, and values for 50% effective concentration were calculated using Prism V7.0 (GraphPad software, San Diego, Calif.).
In vitro phenotypic assay. […] Proliferation and migration curves were generated using IncuCyte ZOOM (Essen BioScience) with images acquired every 3 hr over a 72 hr timeframe. Images were captured per well for each time point. Data were normalized to controls, and values for 50% inhibitory concentration were calculated using Prism V8.0 (GraphPad software).

## CN1CCN(Cc2ccc(Nc3ncc(Cl)c(Nc4ccccc4S(=O)(=O)N(C)C)n3)cc2)CC1 [TP-0903]
A549 and H2009 cells [1]
  sensitivity (cell viability), A549 compared with H2009: more sensitive
A549 cells
  decreased deformation: 25%
  increase in stiffness: 3 fold
  increased adhesion: 50%
A549 mouse xenograft
  effect on body weight: without any adverse effects
A549 mouse xenograft; 21 days
  tumor size / growth: substantial tumor size regression; also recorded: Growth inhibition was confirmed
A549 and H2009 cells [2]; A549, 40 nmol/L
  AXL level (WES): down-regulated
A549 and H2009 cells [2]; A549 and H2009, 40 nM
  cytokeratin 19 (CK19) level: noticeable increase
  vimentin level: minor decrease
A549 and H2009 cells [2]; A549 and H2009, 40 nmol/L
  protein levels of AXL, phosphorylated AXL, SMAD2/3, SMAD4, YAP1, and TAZ: reduced
Two other TAM family
  inhibition of two other TAM family: 80%
[3]; A549 and H2009, increasing concentrations
  cytotoxicity based on cell morphology: did not result in significant cytotoxicity
[3]; increasing concentrations, 0-200 nM
  migration potential: significantly impeded
